Reference: patent US12648952B2, “Methods of treatment using ICAM-modulating agents” (AVM Biotechnology, LLC, priority 2020, dated 2026)

Key:
[1] = system: splenocytes; assay: Ex vivo splenocyte viability by flow cytometry (Study 24); assay type: cell-based, mouse
Protocol: Splenocytes were cultured for 16 hours prior to assay execution.

[2] = system: whole blood; assay: Ex vivo whole blood incubation, immune cell numbers (Study 6); assay type: cell-based, mouse or human
Protocol: The profound in vivo activity that is observed in naïve mice and in cancer models must therefore be mediated through the mobilized supercharged Natural Killer T cells, T cells and dendritic cells after AVM0703 HED 6 mg/kg and higher.

[3] = system: lymphocytes, monocytes, NKT cells, T cells, dendritic cells; assay: In vivo immune cell mobilisation and ablation after high dose glucocorticoid; parameters: species or system mice; conditions: HED 15 mg/kg and higher
From the text: High doses of glucocorticoid exert powerful biological effects that will contribute to the treatment of lymphocyte-mediated diseases and cancers, as well as microbial diseases. […] This cell type is discussed in greater detail below.
CD4CD8 double positivity on CD3 T lymphocytes indicates a cytotoxic T cell. […] In vivo only lymphocytes, monocytes, some neutrophils and cancer cells have been ablated.
AVM_NKT cells are NKp46+ and Ly6G positive, indicating the potential to directly kill targets as well as to engulf them. The typical AVM_NKT summarized above are not CD1d restricted. […] In vivo, glucocorticoids ablate lymphocytes other than NK and NKT cells, and monocytes, within 6 hours after oral dosing of naïve mice. In tumor models the novel NKT and T cell are not observed in the blood. However, within 48 hours of dosing NKp46+ cells and Ly6G+ cells, which are not macrophages as they are negative for F4/80, can be found in formations within the tumors, surrounding regions of remaining viable tumor. This indicates the functional potency of these cells. In the tumor setting, the AVM novel immune cells are not observed in the blood. They appear to preferentially home to the abnormal cells, in this case cancer cells, and circulating normal monocytes and neutrophils are not depleted as they are in the naïve setting.

[4] = system: whole blood; assay: Ex vivo glucocorticoid comparison, whole blood CBC analysis; assay type: cell-based; conditions: overnight, room temperature
[5] = cited from earlier work
[6] = ex vivo or in vitro concentrations equal to peak blood concentrations of HED 7-15 mg/kg or greater

C[C@@H]1C[C@H]2[C@@H]3CCC4=CC(=O)C=C[C@]4(C)[C@@]3(F)[C@@H](O)C[C@]2(C)[C@@]1(O)C(=O)CO [dexamethasone base]
response of isolated splenocytes ([1]; 100 uM up to 500 uM): no response
concentrations that do not trigger splenocyte cell death ([1]; after 4 hours): above 100 μM
concentrations with direct killing activity on splenocytes ([1]; after 4 hours): lower than 100
response of ex vivo whole blood ([2]; 100 uM up to 500 uM): no response
numbers of lymphocytes, monocytes, eosinophils, basophils in whole blood ([2]; 500 μM dexamethasone base or 50 RU486, 16 hr, room temperature): no change in numbers
lymphocyte-killing activity in whole blood ([2]; 500 μM dexamethasone base or 50 RU486 alone): does not induce the lymphocyte-killing activity seen in in vivo experiments

C[C@@H]1C[C@H]2[C@@H]3CCC4=CC(=O)C=C[C@]4(C)[C@@]3(F)[C@@H](O)C[C@]2(C)[C@@]1(O)C(=O)COP(=O)(O)O [dexamethasone phosphate]
in vivo effects on colon, pancreas or bone [3]: no effects on colon, pancreas or bone
induction of CD3-very-high T cells and CD11b-very-high dendritic cells [3]: CD11b-very-high dendritic cells are also induced
direct apoptotic effect on splenocytes [1, 6]: no direct apoptotic effect
differences between dexamethasone formulations in ex vivo CBC analysis [4]: no noticeable differences
direct apoptotic effect on whole blood [2, 6]: no direct apoptotic effect

C[C@]12C=CC(=O)C=C1CC[C@@H]1[C@@H]2C(=O)C[C@@]2(C)[C@H]1CC[C@]2(O)C(=O)CO [prednisone]
biologic half-life [5]: about 20 hours
